Read-outs that look alike come from different tables or passages of the source.

One data set relates to CDK6. Briefly: Cell cycle gene expression array, CDK6. In kind it is cell-based, human. The following applies: RBT-7 cells pre-infected with VCN-01; topotecan 2 μM (FIG. 17F). As for the experimental part: To assess the expression of genes involved in the cell cycle, 6-well culture plates containing 2×10^6 retinoblastoma cells were used. VCN-01 was added at 50 MOI for 48 h, followed by the addition of topotecan (2 μM), […] (12.5 μM) or culture medium. The cell pellets were collected 24 h later. The samples were plated in the TaqMan® Array of Human Cyclins & Cell Cycle Regulation (Thermo Fisher Scientific). This array contains 92 assays of cell cycle-associated genes and assays of GAPDH, 18S, HPRT1 and GUSB as endogenous control genes. the threshold cycle (Ct) value ≥35 was established as absence of expression. The mean expression value of the controls was used to normalize gene expression values. The thresholds for upregulation and downregulation were 2^−ΔΔCt≥2.0 and 2^−ΔΔct≤0.5, respectively (Livak and Schmittgen, “Analysis of relative gene expression data using real-time quantitative PCR and the 2 (−Delta Delta C(T)) Method,” Methods 2001; 25(4):402-8).
SYBR primers were CDKN1A (Forward 5′-GGACAGGAGAGGAAGACCATGT-3′ (SEQ ID NO: 15), Reverse 5′-TGGAGTGGTAGAATTCTGTCATGC-3′ (SEQ ID NO: 16) and CDK6 (Forward 5′-CCAGGCAGGCTTTTCATTCA-3′ (SEQ ID NO: 17), Reverse 5′-AGGTCCTGGAAGTATGGGTG-3′ (SEQ ID NO: 18).

The test system of data set [1] is RBT-7 intracerebral tumors. The experiment in a line: Brain analyses at end of treatment, CNS-disseminated retinoblastoma. In kind it is in vivo, mouse. As to conditions: end of treatment (FIG. 22G).
In data set [2] the test system is E1a. Briefly: Immunoblot of E1a / E2F-1 in VCN-01-infected Y79 cells with further chemotherapeutics. In kind it is cell-based. As for the experimental part:
2 million Y79 retinoblastoma cells were infected with 50 MOIs of VCN-01. […] Etoposide is topoisomerase 2 inhibitor.
In all experiments, 6-well culture plates containing 2×10^6 cells were used. […] The experiments were controlled by adding culture medium instead of the second treatment. […] The analyses were expanded to other chemotherapeutic agents including hydroxyurea ([…]), etoposide (2 μM), irinotecan (10 μM) or SN-38 (1 μM).
Near-infrared labeled secondary antibodies (Odyssey CLx, LI-COR Inc. Bad Homburg, Germany) were used for detection.
In general terms: In western blotting, separated proteins are transferred to a membrane and probed.

The test system of the next data set is Y79 cells. The experiment in a line: Viability of Y79 cells by treatment sequence. In kind it is cell-based. As for the experimental part:
To address the sequence of the treatments on cell viability and apoptosis markers, topotecan (2 μM) and VCN-01 at 50 MOI (concentration sufficient to achieve viral protein transduction at early time points) was incubated with the sequence “topotecan first” (three days before VCN-01) or “VCN-01 first” (three days before topotecan). The experiments were controlled by adding culture medium instead of the second treatment.

The conditions of data set [3]: cited from earlier work.
Data set [4] relates to recombinant hyaluronidase PH20 (SPAM1 gene). Briefly: mRNA expression of recombinant hyaluronidase PH20 (SPAM1) in s.c. retinoblastomas. In kind it is in vivo, mouse. As to conditions: 5 days, compared to […] (FIG. 18H). As for the experimental part:
To quantify the recombinant PH20 hyaluronidase gene (SPAM1) in cultures and mouse tissues, the SYBR primer: Forward 5′-TACACACTCCTTGCTCCTGG-3′ (SEQ ID NO: 19), Reverse: 5′-CTTAGTCTCACAGAGGCCAC-3′ (SEQ ID NO: 20) (Bazan-Peregrino et al., “VCN-01 disrupts pancreatic cancer stroma and exerts antitumor effects,” Journal for ImmunoTherapy of Cancer 2021; 9(11):e003254) was used.
To establish s.c. tumors, 10^6 retinoblastoma cells suspended in 25 µL matrigel (Corning, Glendale, AZ, USA) were injected in athymic nude mice. Upon xenograft engraftment (tumor volumes ranging 100-200 mm^3), treatments were started. Mice received VCN-01 (3×10^9 vp in 20 µL vehicle, single intratumoral injection at day 1), alone or combined with one cycle of topotecan (0.6 mg/kg, intraperitoneal -i.p.-, daily at days 1-5), […] (40 mg/kg, i.p, one single dose at day 1), or hydroxyurea (200 mg/kg, i.p., daily at days 1-5). A group of mice received one intratumoral injection of the vehicle of VCN-01 (20 mM pH 8.0 tris buffer, 25 mM NaCl and 2.5% glycerol). Mice were sacrificed at 5 and 15 days after VCN-01 inoculation, the tumors were dissected and tumor homogenates were prepared by adding 10 μL of water per mg of tissue and homogenizing with a Bullet Blender turbine Storm 24 (Quasar instruments, Colorado Springs, CO, USA). In tumor homogenates, genome copies of VCN-01 were quantified. […]

Data set [5] deals with HSJD-RBT-5 retinoblastoma cells. Briefly: cells. In kind it is cell-based. The following applies: Homo sapiens.
Another data set relates to E2F-1 and cyclin E1. The experiment in a line: Immunoblot of E2F-1 and cyclin E1 in neuroblastoma and Ewing sarcoma cells. In kind it is cell-based. As to conditions: in vitro, up to 48 h with topotecan (FIG. 24C).
For another data set, the system named is E2F-1. Briefly: E2F-1 immunostaining in intraocular Y79 tumors. In kind it is in vivo, mouse. As to conditions: mice with intraocular Y79 tumors, vs untreated (FIG. 17E).
Another data set concerns E2F-1, p21 and cyclin E1. In kind it is cell-based.
A further data set concerns HSJD-RBT-7 tumors. In kind it is in vivo, mouse. The following applies: systemic drug after intratumoral VCN-01 3×10E^9 vp/tumor; 5 days (FIG. 3).
For another data set, the system named is Y79 retinoblastoma cells. The experiment in a line: cells. In kind it is cell-based.
Data set [6] deals with E1a. In kind it is cell-based.
Setting [7] is: read-out: IC50, Topotecan single agent.
Where [8] appears, read: read-out: IC50, Topotecan with VCN-01 (10 MOI).

For the molecule `CC[C@@]1(O)C(=O)OCc2c1cc1n(c2=O)Cc2cc3c(CN(C)C)c(O)ccc3nc2-1` [Topotecan, topotecan], in the data set with CDK6, the “decrease in expression of CDK6” value is 15 fold. Also, the “expression of CDKN1A in brain homogenates” value in data set [1] is given as “highest expression of CDKN1A”. In addition, the “expression of VCN-01 proteins (E1a)” value in the data set with E1a [2] (VCN-01 50 MOI, drug added at 24 h, lysis at 48 h (FIG. 7)) is given as “similarly to topotecan”; in the data set with E1a [6] (4 retinoblastoma models, VCN-01 50 MOI, drug added at 24 h, lysis at 48 h (FIG. 1)) it was “enhanced expression of VCN-01 proteins”. Also, in the data set with E1a [2] (Y79 cells pre-exposed to VCN-01 (FIG. 13H)), the “expression of E2F-1 and E1A” value is “increased the expression of E2F-1 and E1A similarly to topotecan”. Also, in the data set with Y79 cells (cells pre-exposed to topotecan before VCN-01 infection (FIG. 13D)), the “antiproliferative activity, topotecan first” value was “sensitive to the antiproliferative activity of the drug”. Besides, the “antiproliferative activity, VCN-01 first” value in the data set with Y79 cells (previous VCN-01 infection (FIG. 13D)) was “partially abolished the activity of the drug”. Moreover, the ocular toxicity result in data set [3] (all routes of administration) was “minimal”. Moreover, the “passage to the vitreous” value in data set [3] (given intravenously and intraarterially) is “favorable passage to the vitreous”. Further, the “expression of recombinant hyaluronidase” value in data set [4] is “higher expression of recombinant hyaluronidase”. Besides, the IC50 was determined as 87.9 nM in [5] (setting [7]), 586 nM in data set [5] (setting [8]), 30.3 nM with Y79 retinoblastoma cells (setting [7]) and 893 nM in the data set with Y79 retinoblastoma cells (setting [8]). In the data set with E2F-1 and cyclin E1, the “expression of E2F-1 and cyclin E1” value was “overexpression of E2F-1 and cyclin E1”. Further, in the data set with E2F-1, the “E2F-1 expression in cancer cells” value is on record as “higher in the animals treated with topotecan”. Also, the “duration of E2F-1, p21 and cyclin E1 increase” value with E2F-1, p21 and cyclin E1 (FIG. 17D) is listed as “at least 48 h”. Also, the “protein expression of E2F-1, p21 and cyclin E1” value in the data set on E2F-1, p21 and cyclin E1 (Y79 cells (FIG. 17D)) is “increased protein expression of E2F-1, p21 and cyclin E1”. Also, the “onset of E2F-1, p21 and cyclin E1 increase” value in the data set on E2F-1, p21 and cyclin E1 (after exposure (FIG. 17D)) was 1 h. In the data set on HSJD-RBT-7 tumors, the “VCN-01 genome content in tumors” value is recorded as “increases VCN-01 genome content”. The “E1A expression in infected cells” value in the data set on E1a [6] (VCN-01 infected cells treated with drug (FIG. 13B, FIG. 15A)) was “highly overexpressed”.

In general, IC50 refers to the concentration at which inhibition is half-maximal.

The values above are taken from patent US20260335388A1, “COMBINATION THERAPIES WITH ONCOLYTIC ADENOVIRUS AND TOPOISOMERASE I INHIBITORS OR PRODRUGS THEREOF” (priority 2022, published 2026).
